This is an account of results in PubChem BioAssay AID720495 (Broad Institute, 2013).

This experiment addresses Protein AF-9 (Homo sapiens) (UniProt P42568). Kind of experiment: inhibitors of AF4-AF9 protein interaction, dose response, biochemical, cherry-picked samples, plate reader (AID 720495). The note with it: biochemical protein-protein interaction assay; for activity change, negative = inhibition: at 10 µM (top of the series).

Each structure is given as a SMILES string. Inconclusive results are not listed. Active and inactive are the calls of the source. The rule behind the calls is not given here.

Chain of Protein AF-9 (Homo sapiens) (P42568 whole entry, looked up): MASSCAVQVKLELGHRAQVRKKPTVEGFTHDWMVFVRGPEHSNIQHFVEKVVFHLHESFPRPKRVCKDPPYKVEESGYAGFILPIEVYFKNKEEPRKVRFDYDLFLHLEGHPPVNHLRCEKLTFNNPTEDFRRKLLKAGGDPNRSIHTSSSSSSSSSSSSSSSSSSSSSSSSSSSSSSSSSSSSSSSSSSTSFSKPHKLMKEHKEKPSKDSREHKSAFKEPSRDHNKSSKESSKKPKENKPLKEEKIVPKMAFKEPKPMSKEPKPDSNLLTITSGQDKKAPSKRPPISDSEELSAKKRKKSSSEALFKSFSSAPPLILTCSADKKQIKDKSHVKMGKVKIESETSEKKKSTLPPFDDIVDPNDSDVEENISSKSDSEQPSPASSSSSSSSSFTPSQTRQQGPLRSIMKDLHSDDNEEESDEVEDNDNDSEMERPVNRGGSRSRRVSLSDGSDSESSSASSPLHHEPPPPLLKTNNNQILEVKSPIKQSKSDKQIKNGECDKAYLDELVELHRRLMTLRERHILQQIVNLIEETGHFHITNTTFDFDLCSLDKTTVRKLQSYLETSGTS

Regarding `CCOc1ccc(NCc2cccn2-c2nnc(N3CCC(C(=O)NCCCN4CCCCC4C)CC3)s2)cc1` (stereo not given), the AC50 was 4.96 µM.
Turning to `CN(C)c1ccc(NC(=S)NC23CC4CC(CC(C4)C2)C3)cc1`, the “activity change, negative = inhibition” value is “inactive”.
Regarding `c1ccc2c(NCCc3c[nH]c4ccccc34)c3ccccc3nc2c1`, the AC50 is 5.9 µM.
On to `N=C1C=CC(=C(c2ccc(N)cc2)c2ccc(N)cc2)C=C1`, for which the half-maximal activity concentration (AC50) was 6.08 µM.
Same read-out and setting: under `CN(C)c1ccc(CNCCC(Cc2ccccc2)c2ccco2)cc1` (stereo not given) stands 5.44 µM.
`CCOc1ccc(NC(=S)N(CCN2CCOCC2)Cc2ccc3c(c2)CCCN3CC)cc1`: the “activity change, negative = inhibition” value is “inactive”.
The same measure, in the same setting: under `COc1ccc(N2CCC(CNC(=S)Nc3ccc(C)cc3C)C2)cc1` (stereo not given) stands “inactive”.
For the compound `CCOc1ccc(NCc2cccn2-c2nnc(N3CCC(C(=O)NCCCN4C(C)CCCC4C)CC3)s2)cc1` (stereo not given), the concentration at half-maximal activity (AC50) was 5.36 µM.
As to `Cc1ccc2c(c1)C1CN(C)CCC1N2Sc1ccccc1[N+](=O)[O-]` (stereo not given), the AC50 is 5.01 µM.
On to `COc1cccc(-c2sc3ccccc3c2-c2ccc(OCCN(C)C)cc2)c1`, for which the “activity change, negative = inhibition” value is “inactive”.
On the same count and under the same terms, under `NC(=O)C1CCN(C2=C(NS(=O)(=O)c3ccc(Br)cc3)C(=O)c3ccccc3C2=O)CC1` stands “inactive”; under `CCc1ccc(-c2nc(CSCC(=O)N3CCN(c4ncccn4)CC3)c(C)o2)cc1`, “inactive”.
`COc1ccc2nc3ccccc3nc2c1N`: the AC50 was 3.44 µM.
Take `COc1ccc(/C=N/N2CCN(c3ccccc3OC)CC2)cc1Br`: the “activity change, negative = inhibition” value is “inactive”.
For the compound `COc1ccc2ccccc2c1-c1sc(Nc2ccccc2)n[n+]1-c1ccc(F)cc1`, the “activity change, negative = inhibition” value was “inactive”.
On the same count and under the same terms, in the case of `CCOc1cc(N2CCOCC2)c(OCC)cc1NC(=O)c1ccc2ccccc2n1` it was “inactive”.
As to `Cc1c(P(=S)(c2ccccc2)c2ccccc2)[n+]2ccccc2n1C`, the AC50 is 7.98 µM.
Take `CCN(CCCNc1cc2c(c(N)c1S(=O)(=O)O)C(=O)c1ccccc1C2=O)c1ccccc1`: the half-maximal activity concentration (AC50) was 3.65 µM.
Take `C(=C\c1ccc2ccccc2n1)/c1ccccc1`: the “activity change, negative = inhibition” value is “inactive”.
With `Cc1ccc(NC(=S)N/N=C/c2ccc([N+](=O)[O-])s2)cc1`, the “activity change, negative = inhibition” value is “inactive”.
Turning to `CCN(CC)CCC(c1ccc(N(C)C)cc1)c1c(OC)cc(OC)c2c(-c3ccccc3)cc(=O)oc12` (stereo not given), the AC50 is 3.97 µM.
In the case of `Fc1ccc([C@@H]2CCNC[C@H]2COc2ccc3c(c2)OCO3)cc1`, the “activity change, negative = inhibition” value was “inactive”.
With `CSCCC(c1nnnn1C1CCCCC1)N1CCC(n2c(=O)[nH]c3ccccc32)CC1` (stereo not given), the “activity change, negative = inhibition” value is “inactive”.
With `COc1ccccc1N1CCN(/N=C\c2sccc2C)CC1`, the “activity change, negative = inhibition” value was “inactive”.
As for `CCn1c(-c2ccccc2)csc1=Nc1ccc(O)cc1`, the AC50 is 6.97 µM.
With `CCOc1ccc(OCCSc2ccc(S(=O)(=O)N3CCN(C)CC3)cn2)cc1`, the “activity change, negative = inhibition” value is “inactive”.
In the case of `COc1ccc(CCNCc2cc(C)n(-c3ccc(OC)cc3)c2C)cc1`, the “activity change, negative = inhibition” value is “inactive”.
The same measure, in the same setting: in the case of `Cc1cc(N=Nc2ccc(Cl)cc2)cc(CN2CCCC2)c1O` it was “inactive”; in that of `CCOc1cc(CNc2cccc3[nH]c(C)nc23)ccc1OC`, “inactive”.
Take `C[C@@H]1CN([C@@H](C)CO)C(=O)c2cc(N(C)C)ccc2O[C@@H](C)CCCCO[C@@H]1CN(C)Cc1ccc(C(F)(F)F)cc1`: the half-maximal activity concentration (AC50) was 10.5 µM.
In the case of `CSc1ccc2c(c1)N(CCC1CCCCN1C)c1ccccc1S2` (stereo not given), the AC50 is 6.31 µM.
In the case of `Nc1ccccc1Nc1cc(-c2ccccc2)nn1-c1cccc(Cl)c1`, the “activity change, negative = inhibition” value is “inactive”.
For `CN(C)c1cc2c3ccccc3n(C)c2cc1N`, the AC50 is 1.08 µM.
For the compound `S=C(NN=C(c1ccccc1)c1ccccn1)N(Cc1ccccn1)Cc1ccccn1`, the “activity change, negative = inhibition” value is “inactive”.
For `CCCC(=O)NC(c1ccc(OC)cc1)c1ccc2cccnc2c1O` (stereo not given), the half-maximal activity concentration (AC50) is 0.865 µM.
As to `C[n+]1c(-c2ccccc2)c2cc(N)ccc2c2ccc(N)cc21`, the AC50 is 9.5 µM.
Regarding `CCN(CC)c1ccc(N=Cc2cc(Br)ccc2O)cc1`, the “activity change, negative = inhibition” value is “inactive”.
Turning to `Cc1cc(/C=N/n2c(COc3ccccc3C)nc3ccccc3c2=O)c(O)c([N+](=O)[O-])c1`, the “activity change, negative = inhibition” value was “inactive”.
On the same count and under the same terms, under `C[C@@H]1ON(C)[C@H]2C[C@H]3c4[nH]c5ccc(-c6ccc7c(c6)OCO7)cc5c4CCN3C[C@@H]12` stands “inactive”; under `C/C(=N\Nc1nc2ccccc2[nH]1)c1ccc2c(c1)OCO2`, “inactive”.
In the case of `COc1ccccc1C(CCNCc1ccc(N(C)C)cc1)c1ccc(OC(C)C)cc1` (stereo not given), the AC50 was 3.3 µM.
Take `CNC(=S)N1N=C(c2ccc(C)cc2)CC1c1ccc(N(C)C)cc1` (stereo not given): the “activity change, negative = inhibition” value is “inactive”.
Same read-out and setting: in the case of `CCN1CCCc2cc(CN(CCN3CCOCC3)C(=S)Nc3cccc(C)c3)ccc21` it was “inactive”.
For `CCN(CC)CCOc1ccc2c(c1)C(=NNC(=O)c1ccccn1)c1cc(OCCN(CC)CC)ccc1-2`, the half-maximal activity concentration (AC50) was 3.66 µM.
Same read-out and setting: in the case of `CN(C)CCNc1ncnc2c1sc1nc(-c3ccccc3)c3c(c12)CCCC3` it was 6.89 µM.
As to `COc1ccc2sc(N(CCCN(C)C)C(=O)c3ccc(S(=O)(=O)N(C)C4CCCCC4)cc3)nc2c1`, the “activity change, negative = inhibition” value was “inactive”.
Regarding `CC1(C)CNc2cc(N)ccc2S1`, the AC50 was 2.52 µM.
The same measure, in the same setting: under `Cc1ccn2c(Nc3ccc4c(c3)OCO4)c(-c3ccccn3)nc2c1` stands 3.55 µM; under `CC(C)Nc1ccc(Nc2ccccc2)cc1`, 10.9 µM; under `O=C(Nc1ccc(N2CCCCCC2)cc1)c1ccc[nH]1`, 5.21 µM.
On the same count and under the same terms, under `CC[n+]1c(/C=C/C=C/c2ccc(N(C)C)cc2)sc2ccccc21` stands 0.522 µM; under `COc1cccc(CNCCc2c[nH]c3ccccc23)c1OCc1ccccc1`, 11.5 µM; under `C[C@H](CO)N1C[C@H](C)[C@@H](CN(C)Cc2ccc(Cl)c(Cl)c2)Oc2ccc(N(C)C)cc2CC1=O`, 10.8 µM.
As for `c1ccc(C2=Nc3c(ccc4ccccc34)C(c3ccncc3)=NN2)cc1`, the “activity change, negative = inhibition” value was “inactive”.
`Cc1ccc2nc(-c3ccccn3)c(NC3CCCC3)n2c1`: the “activity change, negative = inhibition” value is “inactive”.
On to `Brc1ccc(N/N=C(/N=Nc2nn[nH]n2)c2ccccc2)cc1`, for which the AC50 was 5.84 µM.
Take `Cc1[nH]c2ccc(O)cc2c1CCN`: the concentration at half-maximal activity (AC50) is 5.35 µM.
Regarding `COc1cc2c(c(OC)c1OC)-c1ccc(O)c(=O)cc1[C@@H](N)CC2`, the AC50 is 2.3 µM.
On the same count and under the same terms, in the case of `C[C@H](CO)N1C[C@H](C)[C@@H](CN(C)Cc2ccc(Oc3ccccc3)cc2)Oc2ccc(N(C)C)cc2C1=O` it was 10.7 µM; in that of `CCN1CCN(c2ccc(N)cc2C)CC1`, 6.46 µM.
In the case of `Cc1ccc(S(=O)(=O)NC(=O)Nc2ccc(N(C)C)cc2)cc1`, the “activity change, negative = inhibition” value is “inactive”.
For the compound `CC(C)(c1ccccc1)c1ccc(OCC(O)CNC2CCN(Cc3ccccc3)CC2)cc1` (stereo not given), the AC50 was 0.841 µM.
As for `CCN(CC)CCNc1cccc2sc3ccccc3c(=O)c12`, the “activity change, negative = inhibition” value was “inactive”.
Same read-out and setting: under `COc1ccc(N2CCN(C3CCCN(S(=O)(=O)c4ccc(C)cc4C)C3)CC2)cc1` (stereo not given) stands “inactive”; under `Oc1ccccc1C=NCCN1CCN(CCN=Cc2ccccc2O)C1c1ccccc1O` (stereo not given), “inactive”.
Take `CCOc1ccc(NCc2cccn2-c2nnc(N3CCC(C(=O)NCCCN4CCCCC4CC)CC3)s2)cc1` (stereo not given): the half-maximal activity concentration (AC50) was 4.01 µM.
As for `C#CCOCCOCCOCCNc1nc(N2CCN(C(=O)C([C@@H](C)O)n3cc([C@@H](N)CCCCN)nn3)CC2)nc(N2CCN(C(=O)C([C@@H](C)O)n3cc([C@@H](N)CCCCN)nn3)CC2)n1` (stereo not given in full), the “activity change, negative = inhibition” value was “inactive”.
For `CC(=O)c1cccc2c(O)c(C3=Nc4ccccc4C3=O)[nH]c12`, the AC50 was 3.11 µM.
In the case of `CC(=Nc1ccc(C)cc1C)c1sc2ccccc2c1O`, the “activity change, negative = inhibition” value was “inactive”.
In the case of `CS(=O)(=O)N1CCCCN2[C@H](C1)[C@H](c1ccc(C#Cc3ccccn3)cc1)[C@@H]2CO`, the AC50 is 7.82 µM.
As for `COc1ccc(NCc2ccc(OC)c(Cn3ccnc3)c2)c(OC)c1`, the AC50 was 11.2 µM.
Same read-out and setting: under `COc1cccc2sc(N(CCCN(C)C)C(=O)c3ccc(S(=O)(=O)N4CCCc5ccccc54)cc3)nc12` stands 4.68 µM.
Regarding `CN1CCN(C(c2ccc(C(F)(F)F)cc2)c2ccc3cccnc3c2O)CC1` (stereo not given), the half-maximal activity concentration (AC50) was 0.857 µM.
On to `C[C@H](CO)N1C[C@H](C)[C@H](CN(C)CC2CC2)OCCCC[C@H](C)Oc2ccc(NC(=O)Nc3ccc4c(c3)OCO4)cc2C1=O`, for which the “activity change, negative = inhibition” value is “inactive”.
`CN(C)CC/C=C1\c2ccc(F)cc2Sc2cc(F)c(Cl)cc21`: the AC50 was 9.52 µM.
Regarding `Oc1cc(NCCN2CCOCC2)cc2cccnc12`, the AC50 is 7.86 µM.
For `COc1ccc(NC2CCCN(Cc3cccc4cnccc34)C2)cc1OC` (stereo not given), the “activity change, negative = inhibition” value was “inactive”.
Same read-out and setting: under `O=C(C[C@H]1CC[C@@H]2[C@H](COC[C@@H](O)CN2S(=O)(=O)c2ccc(F)cc2)O1)NCC1CCCCC1` stands “inactive”; under `CCOc1ccc(/C=N/Nc2cc(N3CCOCC3)ncn2)c(O)c1`, “inactive”.
For `CN(C)c1ccc(C=c2c3ccccc3n3c2cc(-c2ccccc2)[n+]3C)cc1`, the AC50 was 2.43 µM.
Still for that read-out and setting: under `CN1CCN(C(c2ccccn2)c2cc(Cl)c3cccnc3c2O)CC1` (stereo not given) stands 2.05 µM.
Regarding `O=C(CN1CCCC1)N/N=C/c1c(O)ccc2ccccc12`, the AC50 is 0.249 µM.
Regarding `COc1cc(OC)c2c(-c3ccccc3)cc(=O)oc2c1C(CCN1CCOCC1)c1ccc(N(C)C)cc1` (stereo not given), the “activity change, negative = inhibition” value is “inactive”.
Still for that read-out and setting: in the case of `Cc1cc(C)c2sc(N(CCCN(C)C)C(=O)c3ccc(S(=O)(=O)N4CCCc5ccccc54)cc3)nc2c1` it was “inactive”.
Still for that read-out and setting: in the case of `CCC(=O)N(C)C[C@H]1Oc2cc(C#Cc3ccncc3)ccc2S(=O)(=O)N([C@@H](C)CO)C[C@@H]1C` it was “inactive”.

As usually defined, the AC50 is the midpoint of the concentration-response curve, whichever way the signal moves.
